# Laboratory results as given in patent US9226950B2, “Method and composition for treating diabetes mellitus” (National Dong Hwa University, priority 2013, dated 2016).
# Target: T1, Insr (Rattus norvegicus, UniProt P15127)
# T1 construct: L6 cells were fully differentiated with α-MEM supplemented with 2% FBS for 5 days to myotubes; endogenous in cells; host or cells: L6 myoblasts differentiated to myotubes
# Test: Phosphorylation of insulin receptors (Tyr1158/Tyr1162/Tyr1163) in L6 cells, Western blot
# Type: cell-based
# Conditions: FIG. 1(a)
# Protocol: […] muscle myoblast cells (L6) was a generous gift from Professor Hitoshi Ashida's Lab. (Kobe University, Kobe, Japan). The cells were grown and maintained in α-minimal essential medium (α-MEM, 12000022, GIBCO, CA, USA) containing 10% fetal bovine serum (FBS, GIBCO) and 1% penicillin streptomycin (GIBCO) in a cell culture incubator with 5% CO2 at 37° C. Prior to the following experiments, the cells were seeded and cultured at a density of 8×10^3 cells per well in 96-well plates or 2.5×10^5 cells per well in 6-well plates. After the myoblasts achieved 80% confluence, the cells were incubated for 5 days in the α-MEM supplemented with 2% FBS to induce differentiation to myotubes.
# L6 cells were fully differentiated with α-MEM supplemented with 2% FBS for 5 days to myotubes. The cells were washed twice with Phosphate Buffered Saline (PBS) containing 0.1% BSA and subsequently incubated α-MEM containing 0.25% BSA with or without 100 nM of S961, and treated with or without 100 μM of Tetracosanol for 90 min. Then, the cells were treated with or without 10 μM of insulin for 5 min. […] The levels of the proteins including phospho-Insulin receptors (Tyr1158/Tyr1162/Tyr1163) and Insulin receptor (Cell Signaling, Boston, Mass., USA) were detected and evaluated by Western blot with primary antibody.
# The cells after treatments were collected and washed twice in cold KRH buffer, and then lysed in ice-cold RIPA buffer incubation at 4° C. for 60 min. After centrifugation at 12,000×g for 30 min at 4° C., the supernatant was kept and quantified by Bradford protein assay (Bio-Rad, Hercules, Calif., USA). […] The signals were monitored using Western Lightning™ Plus-ECL (Perkin Elmer Life Sciences) and the PVDF membrane was exposed to Luminescent image analyzer (LAS)-3000 (Fujifilm, Minato, Tokyo, Japan). Acquired data were analyzed and compared the difference among treatments. […]
# T1 sequence (P15127 27-759 limits assumed): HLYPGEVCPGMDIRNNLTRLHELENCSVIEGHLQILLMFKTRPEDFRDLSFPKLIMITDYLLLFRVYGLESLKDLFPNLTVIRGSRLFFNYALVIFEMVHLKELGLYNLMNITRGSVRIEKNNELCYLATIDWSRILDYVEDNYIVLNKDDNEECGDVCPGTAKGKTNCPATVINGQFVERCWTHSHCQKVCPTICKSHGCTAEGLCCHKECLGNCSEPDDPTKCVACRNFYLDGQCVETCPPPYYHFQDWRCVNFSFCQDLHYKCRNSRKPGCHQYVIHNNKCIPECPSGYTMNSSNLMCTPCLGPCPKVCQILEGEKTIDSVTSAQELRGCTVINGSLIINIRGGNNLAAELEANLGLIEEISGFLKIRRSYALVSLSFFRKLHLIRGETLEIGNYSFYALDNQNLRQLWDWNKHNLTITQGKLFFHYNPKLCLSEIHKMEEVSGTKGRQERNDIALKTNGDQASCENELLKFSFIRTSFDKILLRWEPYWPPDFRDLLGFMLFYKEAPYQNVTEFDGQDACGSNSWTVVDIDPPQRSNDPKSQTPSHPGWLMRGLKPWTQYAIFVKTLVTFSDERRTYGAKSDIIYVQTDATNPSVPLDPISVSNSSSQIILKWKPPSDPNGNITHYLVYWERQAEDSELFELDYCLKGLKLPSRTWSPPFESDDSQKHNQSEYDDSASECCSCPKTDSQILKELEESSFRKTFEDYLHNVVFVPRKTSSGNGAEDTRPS
# T1 sequence (P15127 764-1383 limits assumed): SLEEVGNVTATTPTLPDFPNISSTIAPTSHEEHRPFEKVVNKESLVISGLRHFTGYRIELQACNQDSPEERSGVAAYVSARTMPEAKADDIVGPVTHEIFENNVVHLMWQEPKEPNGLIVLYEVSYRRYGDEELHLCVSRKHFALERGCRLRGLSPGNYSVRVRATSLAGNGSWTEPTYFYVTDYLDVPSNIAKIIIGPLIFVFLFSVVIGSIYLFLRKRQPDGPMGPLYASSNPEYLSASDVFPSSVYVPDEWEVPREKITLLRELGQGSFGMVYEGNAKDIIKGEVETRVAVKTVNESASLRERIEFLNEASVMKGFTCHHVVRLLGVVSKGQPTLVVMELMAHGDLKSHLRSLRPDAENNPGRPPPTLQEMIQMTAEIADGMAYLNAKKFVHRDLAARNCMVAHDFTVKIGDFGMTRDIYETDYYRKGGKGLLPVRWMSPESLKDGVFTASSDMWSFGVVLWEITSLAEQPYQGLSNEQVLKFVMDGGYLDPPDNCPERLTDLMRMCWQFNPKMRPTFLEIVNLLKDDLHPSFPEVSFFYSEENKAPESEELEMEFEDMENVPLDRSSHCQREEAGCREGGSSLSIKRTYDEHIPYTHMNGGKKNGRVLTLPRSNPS
structure (smiles),measurement,setting,value
CCCCCCCCCCCCCCCCCCCCCCCCO [tetracosanol],"phosphorylation of phospho-Insr on Tyr1158, 1162, and 1163","insulin plus tetracosanol (Ins+Tet): 100 μM tetracosanol 90 min, then 10 μM insulin 5 min",tended to be enhanced
same,"phosphorylation of phospho-Insr on Tyr1158, 1162, and 1163","insulin with S961 plus tetracosanol (Ins+S961+Tet): 100 nM S961, 100 μM tetracosanol, 10 μM insulin",tended to be enhanced
